According to article PMC10562900 (RSC Advances, 2023):

Key:
MCF-7 = conditions: read-out: IC50 (cell viability); cited from earlier work
h-e5′NT [1] = target: T1, h-e5′NT (Homo sapiens, UniProt P21589); assay: CD73; assay type: biochemical; conditions: for inhibition at 100 µM: read-out: inhibition% h-e5′NT
T1 sequence (P21589 27-574): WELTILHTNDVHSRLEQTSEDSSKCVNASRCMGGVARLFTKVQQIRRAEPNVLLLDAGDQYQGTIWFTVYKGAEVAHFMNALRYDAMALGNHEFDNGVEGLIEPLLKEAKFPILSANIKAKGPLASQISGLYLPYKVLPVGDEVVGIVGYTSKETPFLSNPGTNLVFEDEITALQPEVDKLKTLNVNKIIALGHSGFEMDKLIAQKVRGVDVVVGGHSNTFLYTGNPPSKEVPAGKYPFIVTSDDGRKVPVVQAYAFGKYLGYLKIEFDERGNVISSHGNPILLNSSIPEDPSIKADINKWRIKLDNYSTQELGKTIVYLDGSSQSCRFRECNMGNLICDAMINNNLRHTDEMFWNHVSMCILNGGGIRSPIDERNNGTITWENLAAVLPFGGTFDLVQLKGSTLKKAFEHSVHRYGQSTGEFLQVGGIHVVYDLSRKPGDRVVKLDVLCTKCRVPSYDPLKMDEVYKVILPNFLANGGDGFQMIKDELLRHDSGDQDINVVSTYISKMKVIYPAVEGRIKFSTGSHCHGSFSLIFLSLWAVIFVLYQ

r-e5′NT [2] = target: T2, r-e5′NT (Rattus norvegicus, UniProt P21588); assay: CD73; assay type: biochemical; conditions: for inhibition at 100 µM: read-out: inhibition% r-e5′NT
T2 sequence (P21588 29-576): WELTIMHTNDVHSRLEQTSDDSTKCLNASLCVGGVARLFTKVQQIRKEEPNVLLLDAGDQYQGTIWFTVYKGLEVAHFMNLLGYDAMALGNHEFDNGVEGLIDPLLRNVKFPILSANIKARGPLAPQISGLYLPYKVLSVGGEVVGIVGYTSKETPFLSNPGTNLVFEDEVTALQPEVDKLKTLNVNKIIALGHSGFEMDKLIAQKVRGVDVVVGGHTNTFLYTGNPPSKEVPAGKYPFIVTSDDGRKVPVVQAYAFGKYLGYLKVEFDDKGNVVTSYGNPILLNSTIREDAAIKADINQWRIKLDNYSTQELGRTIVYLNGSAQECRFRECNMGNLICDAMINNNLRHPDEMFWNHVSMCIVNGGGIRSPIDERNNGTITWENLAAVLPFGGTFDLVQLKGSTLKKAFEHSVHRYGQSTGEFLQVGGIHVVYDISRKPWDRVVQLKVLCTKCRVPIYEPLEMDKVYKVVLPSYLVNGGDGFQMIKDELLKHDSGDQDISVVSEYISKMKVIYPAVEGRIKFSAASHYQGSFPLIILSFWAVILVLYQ

h-TNAP = target: T3, h-TNAP (Homo sapiens, UniProt P05186); assay: h-TNAP inhibition assay; assay type: biochemical; conditions: for inhibition at 100 µM: read-out: inhibition% h-TNAP
T3 sequence (P05186 18-524): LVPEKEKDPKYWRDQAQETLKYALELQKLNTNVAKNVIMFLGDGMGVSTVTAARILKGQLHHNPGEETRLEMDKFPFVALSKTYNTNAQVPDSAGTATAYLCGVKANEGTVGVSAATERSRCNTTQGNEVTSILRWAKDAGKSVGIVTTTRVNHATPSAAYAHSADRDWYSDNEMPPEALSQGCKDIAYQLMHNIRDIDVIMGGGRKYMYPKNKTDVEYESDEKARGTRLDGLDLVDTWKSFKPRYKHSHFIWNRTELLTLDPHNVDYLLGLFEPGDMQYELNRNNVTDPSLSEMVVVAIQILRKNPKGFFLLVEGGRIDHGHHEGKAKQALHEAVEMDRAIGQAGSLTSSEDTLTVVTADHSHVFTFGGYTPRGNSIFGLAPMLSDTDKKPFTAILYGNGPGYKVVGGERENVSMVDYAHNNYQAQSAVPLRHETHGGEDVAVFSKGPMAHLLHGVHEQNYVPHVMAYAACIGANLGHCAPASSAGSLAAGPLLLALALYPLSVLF

h-e5′NT [3] = target: T1, h-e5′NT; assay: Enzyme kinetic studies, h-e5′NT; assay type: biochemical; conditions: Lineweaver–Burk
r-e5′NT [4] = target: T2, r-e5′NT; assay: Enzyme kinetic studies, r-e5′NT; assay type: biochemical; conditions: Lineweaver–Burk
h-ENPP1 = target: T4, h-ENPP1 (Homo sapiens, UniProt P22413); assay: h-ENPP1 inhibition assay; assay type: biochemical; conditions: read-out: inhibition% h-ENPP1
T4 sequence (P22413 1-925): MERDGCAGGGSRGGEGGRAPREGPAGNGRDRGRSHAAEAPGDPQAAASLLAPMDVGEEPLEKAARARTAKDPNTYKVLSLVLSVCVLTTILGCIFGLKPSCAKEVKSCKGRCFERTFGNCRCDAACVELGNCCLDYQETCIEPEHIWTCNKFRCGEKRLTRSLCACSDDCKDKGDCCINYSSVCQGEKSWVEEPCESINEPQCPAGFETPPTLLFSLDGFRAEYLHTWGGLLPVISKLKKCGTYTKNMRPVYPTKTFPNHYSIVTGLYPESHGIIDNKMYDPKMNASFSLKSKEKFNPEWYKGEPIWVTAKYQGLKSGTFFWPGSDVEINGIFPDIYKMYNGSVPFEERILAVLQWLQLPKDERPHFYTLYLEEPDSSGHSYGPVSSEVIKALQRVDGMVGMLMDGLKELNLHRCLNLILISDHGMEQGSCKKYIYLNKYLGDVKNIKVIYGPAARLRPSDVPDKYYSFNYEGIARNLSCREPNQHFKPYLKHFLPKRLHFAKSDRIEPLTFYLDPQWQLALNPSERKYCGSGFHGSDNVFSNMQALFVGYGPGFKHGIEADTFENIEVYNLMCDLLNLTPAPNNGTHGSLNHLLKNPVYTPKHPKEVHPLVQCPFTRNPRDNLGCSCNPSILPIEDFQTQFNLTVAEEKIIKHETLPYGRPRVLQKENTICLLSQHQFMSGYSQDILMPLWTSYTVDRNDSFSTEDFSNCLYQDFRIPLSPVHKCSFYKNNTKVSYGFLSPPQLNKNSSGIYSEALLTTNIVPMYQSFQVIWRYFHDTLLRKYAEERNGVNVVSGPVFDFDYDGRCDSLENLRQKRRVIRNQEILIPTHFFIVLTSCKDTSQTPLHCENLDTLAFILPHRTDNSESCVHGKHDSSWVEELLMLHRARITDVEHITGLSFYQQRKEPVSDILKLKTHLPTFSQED

h-ENPP3 = target: T5, h-ENPP3 (Homo sapiens, UniProt O14638); assay: h-ENPP3 inhibition assay; assay type: biochemical; conditions: for selectivity for h-ENPP3 between the two h-ENPP isozymes: h-ENPP3 versus h-ENPP1
T5 sequence (O14638 1-875): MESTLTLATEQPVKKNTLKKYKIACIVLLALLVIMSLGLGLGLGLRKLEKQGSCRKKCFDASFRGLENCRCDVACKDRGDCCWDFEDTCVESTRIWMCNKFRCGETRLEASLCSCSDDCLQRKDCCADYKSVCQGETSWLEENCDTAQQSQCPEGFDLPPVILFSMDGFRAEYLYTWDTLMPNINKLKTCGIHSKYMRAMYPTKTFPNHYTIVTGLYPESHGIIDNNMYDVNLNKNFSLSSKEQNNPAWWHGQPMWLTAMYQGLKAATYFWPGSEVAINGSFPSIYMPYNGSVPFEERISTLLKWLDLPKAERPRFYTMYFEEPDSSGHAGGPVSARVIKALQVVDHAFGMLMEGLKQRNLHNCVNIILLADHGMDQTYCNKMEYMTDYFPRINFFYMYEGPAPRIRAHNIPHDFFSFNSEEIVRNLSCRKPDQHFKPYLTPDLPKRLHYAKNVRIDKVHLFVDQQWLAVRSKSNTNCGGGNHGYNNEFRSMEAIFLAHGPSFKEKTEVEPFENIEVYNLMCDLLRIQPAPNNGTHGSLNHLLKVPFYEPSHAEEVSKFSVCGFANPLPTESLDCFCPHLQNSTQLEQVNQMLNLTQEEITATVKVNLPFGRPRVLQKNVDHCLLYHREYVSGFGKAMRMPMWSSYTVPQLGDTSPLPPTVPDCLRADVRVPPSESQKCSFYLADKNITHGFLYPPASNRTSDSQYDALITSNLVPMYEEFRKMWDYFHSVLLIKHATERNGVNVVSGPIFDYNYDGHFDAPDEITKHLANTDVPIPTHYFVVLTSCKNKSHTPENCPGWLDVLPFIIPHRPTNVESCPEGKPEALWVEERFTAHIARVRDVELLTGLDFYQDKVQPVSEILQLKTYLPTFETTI

| IC50 (h-e5′NT [1]) [nM] | inhibition at 100 µM (r-e5′NT [2]) [%] | IC50 (h-TNAP) [nM] | IC50 (r-e5′NT [2]) [nM] | SMILES | other results |
| --- | --- | --- | --- | --- | --- |
| – | – | – | – | COc1cccc(OS(=O)(=O)c2ccc(C)cc2)c1 [3-methoxyphenyl p-toluenesulfonate] | IC50 (MCF-7): 89800 nM |
| 1190 ± 20 | 22.7 | 1600 ± 110 | – | O=C(Cc1c[nH]c2ccccc12)Nc1ccccc1OS(=O)(=O)c1ccccc1Cl [5a, 2-(2-(1H-indol-3-yl)acetamido)phenyl 2-chlorobenzenesulfonate] | – |
| 13200 ± 3140 | 38.5 | – | – | O=C(Cc1c[nH]c2ccccc12)Nc1ccccc1OS(=O)(=O)Cc1ccccc1 [5b, 2-(2-(1H-indol-3-yl)acetamido)phenyl phenylmethanesulfonate] | inhibition at 100 µM (h-TNAP): 42.4% |
| 370 ± 30 | – | 1480 ± 20 | 1660 ± 40 | O=C(Cc1c[nH]c2ccccc12)Nc1ccccc1OS(=O)(=O)c1ccc(F)cc1 [5c, 2-(2-(1H-indol-3-yl)acetamido)phenyl 4-fluorobenzenesulfonate] | Mode of inhibition h-e5′NT (h-e5′NT [3]): un-competitive |
| 3460 ± 120 | – | 5180 ± 460 | 1770 ± 120 | COc1ccc(S(=O)(=O)Oc2ccccc2NC(=O)Cc2c[nH]c3ccccc23)cc1 [5d, 2-(2-(1H-indol-3-yl)acetamido)phenyl 4-methoxy-benzenesulfonate] | – |
| 560 ± 16 | – | 1060 ± 30 | 980 ± 20 | O=C(Cc1c[nH]c2ccccc12)Nc1ccccc1OS(=O)(=O)c1ccc(-c2ccccc2)cc1 [5e, 2-(2-(1H-indol-3-yl)acetamido)phenyl [1,1′-biphenyl]-4-sulfonate] | – |
| 690 ± 1 | – | 6580 ± 250 | 1640 ± 20 | O=C(Cc1c[nH]c2ccccc12)Nc1ccccc1OS(=O)(=O)c1ccc(Br)cc1 [5f, 2-(2-(1H-indol-3-yl)acetamido)phenyl 4-bromobenzenesulfonate] | – |
| 4410 ± 190 | – | 590 ± 80 | 1850 ± 110 | Cc1ccc(S(=O)(=O)Oc2ccccc2NC(=O)Cc2c[nH]c3ccccc23)cc1Cl [5g, 2-(2-(1H-indol-3-yl)acetamido)phenyl 3-chloro-4-methylbenzenesulfonate] | – |
| 4850 ± 550 | – | 2270 ± 240 | 810 ± 50 | O=C(Cc1c[nH]c2ccccc12)Nc1ccccc1OS(=O)(=O)c1ccc(I)cc1 [5i, 2-(2-(1H-indol-3-yl)acetamido)phenyl 4-iodobenzenesulfonate] | Mode of inhibition r-e5′NT (r-e5′NT [4]): competitive |
| 890 ± 40 | – | 1680 ± 70 | 5120 ± 610 | O=C(Cc1c[nH]c2ccccc12)Nc1ccccc1OS(=O)(=O)C(F)(F)F [5j, 2-(2-(1H-indol-3-yl)acetamido)phenyl trifluoromethanesulfonate] | – |
| – | 28.6 | – | – | CC(C)S(=O)(=O)Oc1ccccc1NC(=O)Cc1c[nH]c2ccccc12 [5k, 2-(2-(1H-indol-3-yl)acetamido)phenyl propane-2-sulfonate] | inhibition at 100 µM (h-e5′NT [1]): 37.5%; inhibition at 100 µM (h-TNAP): 31.8% |
| 430 ± 30 | – | 1690 ± 180 | 5670 ± 110 | O=C(Cc1c[nH]c2ccccc12)Nc1ccccc1OS(=O)(=O)c1ccc(Cl)cc1 [5l, 2-(2-(1H-indol-3-yl)acetamido)phenyl 4-chlorobenzenesulfonate] | – |
| 6530 ± 670 | 30 | 1300 ± 380 | – | O=C(Cc1c[nH]c2ccccc12)Nc1ccccc1OS(=O)(=O)c1cccc2cccnc12 [5m, 2-(2-(1H-indol-3-yl)acetamido)phenyl quinoline-8-sulfonate] | – |
| – | 46.6 | – | – | O=C(Cc1c[nH]c2ccccc12)Nc1ccccc1OS(=O)(=O)c1cccs1 [5n, 2-(2-(1H-indol-3-yl)acetamido)phenyl thiophene-2-sulfonate] | inhibition at 100 µM (h-ENPP1): 38%; IC50 (h-ENPP3): 2550 ± 70 nM; selectivity for h-ENPP3 between the two h-ENPP isozymes (h-ENPP3): more effective and selective for h-ENPP3; inhibition at 100 µM (h-e5′NT [1]): 44.7%; inhibition at 100 µM (h-TNAP): 28.9% |
| 3210 ± 830 | – | 3370 ± 50 | 4860 ± 40 | Cc1ccc(S(=O)(=O)Oc2ccccc2NC(=O)Cc2c[nH]c3ccccc23)cc1 [5o, 2-(2-(1H-indol-3-yl)acetamido)phenyl 4-methylbenzenesulfonate] | inhibition at 100 µM (h-ENPP1): 28.3%; IC50 (h-ENPP3): 2670 ± 460 nM; selectivity for h-ENPP3 between the two h-ENPP isozymes (h-ENPP3): more effective and selective for h-ENPP3 |
| – | – | – | – | COc1ccc(OS(=O)(=O)c2ccc(C)cc2)cc1 [p-methoxyphenyl p-toluenesulfonate] | IC50 (MCF-7): 126000 nM |
